Measured values reported in patent US20140294724A1, “COMPOSITIONS AND METHODS FOR TREATMENT OF PROTEINOPATHIES” (Intellect Neurosciences, Inc., priority 2011, published 2014).
Several values for one entry are separate records, joined by “and”; a condition that tells them apart may be missing. Equal entries are not always repeated.

Key:
β-Amyloid 1-40 peptide = target: T1, β-Amyloid 1-40 peptide (Homo sapiens, UniProt P05067); assay: β-Amyloid aggregation, Thioflavin T fluorescence assay; format: biochemical; conditions: 24 hours; for reduction of fibrillogenesis: with ApoE4 added (about 1/80 of test compound), equimolar with Aβ; for potency in reducing fibrillogenesis compared with melatonin: with ApoE4 added
T1 construct: 60 μM β-Amyloid 1-40
T1 sequence (P05067 672-711): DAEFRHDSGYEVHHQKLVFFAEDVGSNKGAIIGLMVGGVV
Protocol: In a NUNC PP 96-well plate 100 μL of MilliQ dH2O was added to the outer wells surrounding the test wells in order to minimize evaporation. Samples in a final volume of 100 μl/well were added to the 96-well plate as follows:
Aggregation was measured at 0 and 24 hours incubation time.
5 μL was obtained from each test sample after incubation and added to 2 mL of a glycine/NaOH buffer (50 mM, pH 9.2) containing 3 μM thioflavin T. Fluorescence intensities were measured at an excitation wavelength of 450 nm and an emission wavelength of 485 nm in a Envision fluorescence spectrophotometer. A time scan of fluorescence intensity was performed, and three measurements were taken after the decay reached a plateau at 200, 220, and 240 s and averaged after subtracting the background fluorescence of 3 μM thioflavin T in the blank buffers. […] All measurements were taken in triplicate. Siliconized polypropylene microcentrifuge tubes (USA Scientific) were used for these experiments. Solutions of recombinant apolipoproteins were immediately lyophilized and, prior to being used, resuspended in 0.1 M tris-phosphate-HCl buffer (pH 7.4). […] Solutions of Aβ were prepared by dissolving 2.2 mg of the peptide in 1 mL of 50 mM buffer at pH 9.6. Aliquots (50 uL) of this solution were lyophilized and stored at −80° C. until they were needed for the experiments. Working stock solutions of the peptide (concentration of 500 uM) were prepared in HPLC-grade water immediately prior to the experiments. The absence of aggregates and amyloid fibrils in these solutions was verified by spectrofluorometry.

[1] = Oxygen Radical Absorbance Capacity assay (ORAC antioxidant test); format: biochemical; conditions: for Calculated Trolox® equivalents: ratio of slope of sample to slope of Trolox® (Eq. 3)
Text: Sodium Fluorescein was purchased from Invitrogen. 2,2′-Azobis(2-amidinopropane) dihydrochloride (AAPH), 6-hydroxy-2,5,7,8-tetramethylchroman-2-carboxylic acid (Trolox®), gallic acid, Epigallocatechin gallate (EGCG), epigallocatechin (EGC), and quercetin dihydrate were purchased from Sigma-Aldrich (St. Louis, Mo.). Black-sided, special optics clear bottom plates (part #3615) were obtained from Corning.
The ORAC assay depends on the free radical damage to a fluorescent probe, such as fluorescein, to result in a downward change of fluorescent intensity. The assumption is that the degree of change is indicative of the amount of radical damage. […] This inhibition is observed as a preservation of the fluorescent signal. Reactions containing antioxidants and or blanks are run in parallel using equivalent amounts of a molecule capable of generating super reactive oxygen species (ROS) and fluorescent probe. Because the reaction is driven to completion, one can quantitate the protection by calculating the area under the curve (AUC) from the experimental sample. After subtracting the AUC from the blank, the resultant difference would be the protection conferred by the antioxidant compound. […] The ORAC assay is unique in that because the assay is driven to completion the AUC calculation combines both the inhibition time as well inhibition percentage of free radical damage by the antioxidant into a single quantity.
Reactive oxygen species generators were added to parallel reactions containing equal amounts of a fluorescent probe. Reactions contained either a buffer blank or antioxidant samples and standards. The antioxidant capacity of a sample is the net difference between the area under the curve (AUC) of the sample and that of the blank. The exterior wells were not used for experimental determinations. 200 μL of MilliQ dH2O was added to the outer wells surrounding the test wells in order to minimize evaporation. 150 μL sodium fluorescein was added to experimental wells. […] The plate was allowed to equilibrate by incubating for 30 min in the Victor2^V Microplate Reader (Perkin Elmer, Waltham, Mass.) at 37° C. Reactions were initiated by the addition 25 μL of AAPH solution (free radical initiator) for a final reaction volume of 200 μl. The fluorescence was monitored kinetically in Victor2V with temperature control reader for at least 80 min with data taken every minute. Fast orbital shaking (0.5 mm) for 10 sec was performed prior to each reading. The temperature was set to 37° C. at all time and the reagents were treated as light sensitive.
AUC=(R1/R1)+(R2/R1)+(R3/R1)+ . . . +(Rn/R1) (Eq. 1)
Where R1 is the fluorescence reading at the initiation of the reaction and Rn is the last measurement.
Net AUC=AUC(sample)−AUC(blank) (Eq. 2)
The resultant standard curve was then interpolated to determine of antioxidant capacity of the samples and reported as Trolox® equivalence. To determine Trolox® equivalents of each sample range the ratio of the slope (m) of the linear regression analysis of the sample to the slope of the linear regression of Trolox® was used:
TE(range of concentrations)=m(sample)/m(Trolox®) (Eq. 3)

patients with AD = conditions: 250 mg dose, cited from earlier work
[2] = tested on: moderate-stage AD patients; conditions: 2000 IU per day; cited from earlier work

SMILES	reduction of fibrillogenesis (β-Amyloid 1-40 peptide)	potency in reducing fibrillogenesis compared with melatonin (β-Amyloid 1-40 peptide)	AUC ([1]; Concentration 0.390625)	Net AUC ([1]; Concentration 0.390625)	AUC ([1]; Concentration 0.78125)	Net AUC ([1]; Concentration 0.78125)	AUC ([1]; Concentration 1.5625)	Net AUC ([1]; Concentration 1.5625)	AUC ([1]; Concentration 3.125)	Net AUC ([1]; Concentration 3.125)	AUC ([1]; Concentration 6.25)	Net AUC ([1]; Concentration 6.25)	AUC ([1]; Concentration 12.5)	Net AUC ([1]; Concentration 12.5)	AUC ([1]; Concentration 25)	Net AUC ([1]; Concentration 25)	AUC ([1]; Concentration 50)	Net AUC ([1]; Concentration 50)	AUC ([1]; Concentration 100)	Net AUC ([1]; Concentration 100)	other results
COc1ccc2[nH]cc(CCNC(=O)CCCCCN3C(=O)CC(SC[C@H](N)C(=O)O)C3=O)c2c1 (stereo partly drawn) [Example 1, (2R)-2-amino-3-((1-(6-((2-(5-methoxy-1H-indol-3-yl)ethyl)amino)-6-oxohexyl)-2,5-dioxopyrrolidin-3-yl)thio)propanoic acid]	75%	about 2 fold	14.99	8.56	20.01	13.58	29.51	23.08	46.55	40.12	74.68	68.25	93.56	87.13	93.03	86.60	88.39	81.96	82.12	75.69	Calculated Trolox® equivalents [1]: 2.02 Trolox® equivalents
COc1ccc2[nH]cc(CCNC(=O)CCOCCOCCOCCOCCNC(=O)CCN3C(=O)CC(SC[C@H](N)C(=O)O)C3=O)c2c1 (stereo partly drawn) [Example 2, (2R)-2-amino-3-((1-(1-(5-methoxy-1H-indol-3-yl)-4,20-dioxo-7,10,13,16-tetraoxa-3,19-diazadocosan-22-yl)-2,5-dioxopyrrolidin-3-yl)thio)propanoic acid]	75%	about 2 fold	13.97	7.75	20.49	14.27	28.06	21.84	45.62	39.39	71.79	65.56	94.48	88.26	97.13	90.91	97.12	90.90	96.55	90.33	Calculated Trolox® equivalents [1]: 1.97 Trolox® equivalents
COc1ccc2[nH]cc(CCNC(C)=O)c2c1 [Melatonin, N-[2-(5-Methoxyindol-3-yl)ethyl]acetamide]			14.74	8.09	20.89	14.24	28.74	22.09	42.59	35.94	66.10	59.45	88.65	82.00	93.12	86.47	94.75	88.10	91.48	84.82	
CN(C)Cc1ccc2c(Cl)cc(Cl)c(O)c2n1 [PBT2]																					tolerability (patients with AD; patients with AD): well-tolerated; cerebrospinal fluid (CSF) levels of amyloid-beta42 (patients with AD; within 12 weeks of treatment): significantly lowered; executive function on a Neuro-psychological Test Battery (NTB) (patients with AD; within 12 weeks of treatment): significantly improved
Cc1c(C)c2c(c(C)c1O)CCC(C)(C(=O)O)O2 (stereo not shown) [Trolox, 6-hydroxy-2,5,7,8-tetramethylchroman-2-carboxylic acid]			11.95 and 13.53 and 11.49	5.30 and 7.10 and 5.27	14.90 and 15.01 and 14.62	8.24 and 8.58 and 8.39	20.00 and 19.69 and 19.52	13.34 and 13.26 and 13.30	28.96 and 29.49 and 28.51	22.31 and 23.06 and 22.29	44.91 and 44.55 and 43.41	38.25 and 38.12 and 37.18	77.61 and 74.88 and 73.04	70.96 and 68.45 and 66.81	96.34 and 100.28 and 98.61	89.68 and 93.85 and 92.39	98.05 and 97.48 and 100.67	91.40 and 91.05 and 94.45	95.82 and 99.05 and 97.58	89.17 and 92.62 and 91.35	protection of fluorescein against oxidation ([1]; 6.25 μM, lowest concentration tested, versus buffer only control): only slight protection; duration of virtually full protection of fluorescein against oxidation ([1]; 100 μM, highest concentration tested): approximately 20 minutes
Cc1c(C)c2c(c(C)c1O)CCC(C)(CCCC(C)CCCC(C)CCCC(C)C)O2 (stereo not drawn) [Vitamin E, α-tocopherol]																					delay in reaching the end points of institutionalization, loss of major activities of daily living, or death [2]: small but significant delay; loss of cognitive performance [2]: did not delay
